Results on six molecules are retold here after US20230257383A1, “COMPOUND SERVING AS BTK INHIBITOR, PREPARATION METHOD THEREFOR, AND USE THEREOF” (CHENGDU HYPERWAY PHARMACEUTICALS CO., LTD., priority 2020, published 2023).

The test system of series [1] is TMD8 mouse subcutaneous xenograft tumor. As to the kind of experiment: TMD8 pharmacodynamic model test. To be noted: same dose of 20 mg/kg, FIG. 2. It counts as in vivo. On the procedure:
Test Example 7: TNMD8 Pharmacodynamic Model Test
Human diffuse large B-cell lymphoma TMD8 cells were monolayer-cultured in vitro in RPNHI1640 medium with […], 100 U/mL penicillin and 100 μg/mL streptomycin, in a 37° C., […] incubator. Routine digestion with trypsin-EDTA was performed twice a week for passaging. When the cell density was […] and the number reached the requirement, cells were harvested, counted and inoculated. 0.2 ml (1×10^7 cells) of TMVD8 cells (added with matrigel at a volume ratio of 1:1) were subcutaneously inoculated on the right back of each mouse. The mice were administered in groups when the average tumor volume reached about 137 mm^3. Tumor diameters were measured twice a week with vernier calipers. The tumor volume was calculated by the formula V=0.5 a×b^2, where a and b represent the long and short diameters of the tumor, respectively.

Series [2] relates to DOHH-2-luc tumor cells in the mouse brain. As to the kind of experiment: DOHH-2-Luc intracerebral tumor drug efficacy model test. It counts as in vivo. The following applies: for inhibitory effect against the tumor compared with Tirabrutinib: DOHH2 tumor model in the mouse brain, same dose of 30 mg/kg (BID), FIG. 3; for fluorescence image of brain tumor (red area = tumor size): DOHH-2-Luc intracerebral model, same dose, FIG. 4; for side effects: mouse, 30 mg/kg (BID), after 21 days of administration. On the procedure:
Test Example 8: DOHH-2-Luc Intracerebral Tumor Drug Efficacy Model Test
DOHH-2-luc tumor cells were cultured in vitro with RPMI 1640 medium containing 10% fetal bovine serum and 500 ng/mL puromycin in a 37° C., 5% CO2 incubator. […] Tumor cells in logarithmic growth phase were used for inoculation of tumors in vivo.
2. Inoculation of Tumor Cell and Grouping
After the animal was anesthetized by intramuscular injection of Zoletil, it was fixed on the operating table in a prone position. The skin on the top of the head was disinfected with iodine and 75% alcohol respectively, and the skin was cut about 0.5 cm along the midline of the head to expose the coronal and sagittal lines. Being located about 0.5-1.0 mm above the coronal line and about 2 mm to the right of the sagittal line by using a brain locator, a hole was drilled with a 1 mL syringe needle. The micro-injector was inserted vertically to a depth of 3 mm at the location, slowly (about 1 min) injected with 3×10^5 DOHH-2-luc tumor cells/2 μL suspension and kept for 1 min. After pulling out the needle, the needle hole was quickly sealed with bone wax, and the wound was sutured with a stapler. About the 7th day after tumor inoculation, the animals were randomly divided into 5 groups according to the body weight of the animals and the optical signal intensity of the tumor site, with 5 animals in each group.
The mice were imaged 1-2 times a week according to their state using the small animal in vivo imaging system IVIS Lumina III (Perkin Elmer). The bioluminescence imaging (BLI, unit: photons/s) signal intensity at the tumor cell inoculation site of mouse was monitored as the main indicator for evaluating tumor growth and drug efficacy. The specific operation is as follows:
The mice were intraperitoneally injected with D-luciferin (15 mg/mL, 5 μL/g according to the body weight of the experimental animal), and then inhaled anesthetized with 1%-2% isoflurane. 10 min after the injection of D-luciferin, the animals were imaged with IVIS Lumina III. The data were analyzed and processed using Living Image software (Perkin Elmer), and the optical signal intensity in ROI (regions of interest) of each animal was calculated.

Series [3] can be described thus: Liver microsome metabolic stability test (human). To be noted: for microsomal CLint: read-out: CLint (μL/min/mg) Human. It counts as in vitro ADME. The method in brief:
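Human or rat liver microsomes (working solution 0.5 mg/mL protein) were pre-incubated with compound at 37 °C. The reaction was started with NADPH regeneration system and quenched with ac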

Series [4] has as its target HER2 kinase (Homo sapiens, UniProt P04626). Kind of series: HER2 kinase activity test (HTRF). It counts as biochemical. On the procedure:
Test Example 5: HER2 Kinase Activity Test
1. Her2 Kinase test steps
2) 100 nl of the diluted compound working solution was transferred into each well of a reaction plate (784075, Greiner) by an Echo 550 liquid hander. The reaction plate was sealed with a sealing film and centrifuged at 1000 g for 1 min.
3) 1 ng/μL Her2 kinase solution was prepared with 1× kinase reaction buffer.
4) 5 μL of the kinase solution prepared above was added to each well of the reaction plate. The plate was sealed with a sealing film, centrifuged at 1000 g for 1 min, and placed at room temperature for 10 min.
5) A mixture of 2× kinase substrate and ATP was prepared by using 1× kinase reaction buffer, and the 2× Her2 kinase substrate was 2 μM TK-substrate-biotin and 4 μM ATP
6) 5 μL of the mixture of 2× TK-substrate-biotin and ATP was added to the reaction plate, centrifuged at 1000 g for 30 seconds to start the reaction.
7) Her2 kinase test was performed at room temperature for 50 min of reaction.
9) 10 μL of the mixture of Sa-XL 665 and TK-antibody-Cryptate was added to each well, centrifuged at 1000 g for 30 seconds, and reacted at room temperature for 1 h.
10) The fluorescence signals at 615 nm (Cryptate) and 665 nm (XL665) were read by Envision 2104.
1) The percentage inhibition was calculated as follows: […]
Ratiopositive control: average value of Ratio 665/615 nm of all positive control wells in the plate.
Rationegative control: average value of Ratio 665/615 nm of all negative control wells in the plate.
2) Calculation of IC50 and fitting of dose-effect curve of compound:
The IC50 of the compound was derived using the following nonlinear fitting formula with GraphPad 6.0.
Y=Bottom+(Top−Bottom)/(1+10^((Log IC50−X)×HillSlope)).
X: log value of compound concentration; Y: percentage inhibition of compound

Chain of HER2 kinase (P04626 23-1255): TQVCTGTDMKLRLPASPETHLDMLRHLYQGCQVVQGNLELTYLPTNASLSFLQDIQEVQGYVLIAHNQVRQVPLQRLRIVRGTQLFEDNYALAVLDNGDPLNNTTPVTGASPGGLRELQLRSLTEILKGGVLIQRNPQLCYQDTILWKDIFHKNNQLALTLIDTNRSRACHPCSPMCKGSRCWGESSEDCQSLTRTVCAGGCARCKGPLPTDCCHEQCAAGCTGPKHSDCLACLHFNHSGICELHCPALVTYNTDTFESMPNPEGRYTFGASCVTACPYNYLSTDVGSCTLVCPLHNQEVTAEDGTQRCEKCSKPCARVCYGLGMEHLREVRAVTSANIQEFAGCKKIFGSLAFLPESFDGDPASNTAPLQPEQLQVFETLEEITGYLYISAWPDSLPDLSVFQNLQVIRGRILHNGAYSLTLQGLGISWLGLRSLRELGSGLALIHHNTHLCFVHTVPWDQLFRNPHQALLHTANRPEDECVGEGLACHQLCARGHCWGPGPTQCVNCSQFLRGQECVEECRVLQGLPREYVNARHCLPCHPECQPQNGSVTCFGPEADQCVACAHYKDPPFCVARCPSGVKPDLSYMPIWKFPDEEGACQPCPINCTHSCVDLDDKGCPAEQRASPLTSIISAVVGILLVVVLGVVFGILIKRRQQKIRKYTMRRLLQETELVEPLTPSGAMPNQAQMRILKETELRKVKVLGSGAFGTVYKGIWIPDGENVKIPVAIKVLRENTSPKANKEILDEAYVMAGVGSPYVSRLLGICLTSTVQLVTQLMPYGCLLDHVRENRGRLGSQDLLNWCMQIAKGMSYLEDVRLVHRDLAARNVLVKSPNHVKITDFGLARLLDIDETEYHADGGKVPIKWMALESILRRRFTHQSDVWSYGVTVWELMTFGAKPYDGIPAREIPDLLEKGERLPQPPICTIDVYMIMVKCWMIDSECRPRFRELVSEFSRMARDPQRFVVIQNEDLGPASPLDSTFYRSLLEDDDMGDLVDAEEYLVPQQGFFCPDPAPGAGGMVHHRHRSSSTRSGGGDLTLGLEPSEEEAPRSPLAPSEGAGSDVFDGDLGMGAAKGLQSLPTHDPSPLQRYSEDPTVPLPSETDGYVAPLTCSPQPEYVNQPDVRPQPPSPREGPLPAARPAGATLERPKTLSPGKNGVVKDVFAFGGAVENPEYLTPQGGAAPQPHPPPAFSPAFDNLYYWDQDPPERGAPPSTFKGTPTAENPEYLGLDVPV

On to `Nc1nccn2c(C3CCC(CO)OC3)nc(-c3ccc(C(F)(F)c4ccccc4)cc3)c12` (single isomer, unassigned) [Example 111-P1], for which the “inhibitory effect against the tumor compared with Tirabrutinib” value in series [1] is “significantly better inhibitory effect against the tumor than Tirabrutinib”. Moreover, in series [2], the “inhibitory effect against the tumor compared with Tirabrutinib” value is recorded as “significantly better inhibitory effect against the tumor than Tirabrutinib”; the “fluorescence image of brain tumor (red area = tumor size)” value is “very good inhibitory effect against the tumor, with almost no red area”; the side effects entry is recorded as “no side effects had been found”.

`Nc1nccn2c(C34CCC(CO)(CC3)OC4)nc(-c3ccc(C(F)(F)c4ccccc4)cc3)c12` [Example 125]: the “inhibitory effect against the tumor compared with Tirabrutinib” value in series [1] is “significantly better inhibitory effect against the tumor than Tirabrutinib”. For the same molecule, in series [2], the “inhibitory effect against the tumor compared with Tirabrutinib” value is listed as “significantly better inhibitory effect against the tumor than Tirabrutinib”; the “fluorescence image of brain tumor (red area = tumor size)” value is listed as “very good inhibitory effect against the tumor, with almost no red area”; the side effects entry was “no side effects had been found”. The microsomal CLint in series [3] (liver microsomes) was determined as 14.6 µL/min/mg.

For orientation: IC50 means the concentration needed to halve the response being measured. Lower therefore signals higher potency. In the case of `Nc1nccn2c(C34CCC(CO)(CC3)OC4)nc(-c3ccc(C(F)(F)c4ccccc4F)cc3)c12` [Example 145], in series [3] (60 min), the “% Remaining (60 min) Human” value came out at 46.2%. Moreover, the half-life in series [3] (liver microsomes, 0.5 mg/mL protein, read-out: T1/2 (min) Human) is 61.2 min. Also, the microsomal CLint in series [3] (liver microsomes) was 22.7 µL/min/mg. Also, the IC50 in series [4] was 1.69 nM.

For `Nc1nccn2c(C34CCC(CO)(CC3)OC4)nc(-c3ccc(C(F)(F)c4cccc(Cl)c4F)cc3)c12` [Example 152], the microsomal CLint in series [3] (liver microsomes) turned out to be 45.9 µL/min/mg. The same molecule came in with an IC50 in series [4] of 4.19 nM.

Turning to `Nc1nccn2c(C34CCC(CO)(CC3)OC4)nc(-c3ccc(C(F)(F)c4ccccc4Cl)cc3)c12` [Example 155], the microsomal CLint in series [3] (liver microsomes) is 41.7 µL/min/mg. This molecule gave a concentration for half-maximal inhibition (IC50) in series [4] of 9.44 nM.

Regarding `Cc1cc(Nc2ncnc3ccc(NC4=NC(C)(C)CO4)cc23)ccc1Oc1ccn2ncnc2c1` [Tucatinib, reference compound], the microsomal CLint in series [3] (liver microsomes) was found to be 43.7 µL/min/mg. Besides, in series [4], the IC50 turned out to be 3 nM.
